Results as given in US20230303540A1 (Merck Sharp & Dohme LLC, priority 2020, published 2023).

Molecular target: GST-tagged truncated human mutant G2019S LRRK2 (Homo sapiens, UniProt Q5S007, G2019S)
Experiment: LRRK2 G2019S Km ATP LanthaScreen assay
Type: biochemical
Settings: 134 μM ATP (Km ATP), LRRKtide substrate, mean IC50 values; read-out: LRRK2 pIC50 (converted)
Procedure, shortened: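 Compound preincubated 15 min at room temperature with enzyme in pH 8.5 Tris buffer (10 mM MgCl2). Then a 90 min reaction at ambient temperature with 134 μM (Km) ATP and fluorescein-LRRKtide. EDTA stop, Tb anti-phospho antibody TR-FRET; […]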

SMILES | IC50 [nM]
Cc1nsc(Nc2ncc3ccc(N4C(=O)OC[C@@H]4C)cc3n2)c1C [Ex-7.12, (4S)-3-{2-[(3,4-dimethyl-1,2-thiazol-5-yl)amino]quinazolin-7-yl}-4-methyl-1,3-oxazolidin-2-one] | 0.625
CCn1ncc(Nc2ncc3ccc(N4C(=O)C5CCC4C5)cc3n2)c1C (centres unmarked) [Ex-7.19, 2-{2-[(1-ethyl-5-methyl-1H-pyrazol-4-yl)amino]quinazolin-7-yl}-2-azabicyclo[2.2.1]heptan-3-one] | 2.53
CCn1ncc(Nc2ncc3ccc(N4C(=O)C5CCC4C5)cc3n2)c1C (centres unmarked) [Ex-7.20, 2-{2-[(1-ethyl-5-methyl-1H-pyrazol-4-yl)amino]quinazolin-7-yl}-2-azabicyclo[2.2.1]heptan-3-one] | 11.3
C[C@H]1COC(=O)N1c1ccc2cnc(Nc3cnn(CC(F)(F)F)c3)nc2c1 [Ex-7.21, (4S)-4-methyl-3-(2-{[1-(2,2,2-trifluoroethyl)-1H-pyrazol-4-yl]amino}quinazolin-7-yl)-1,3-oxazolidin-2-one] | 0.625
Cc1cc(Nc2ncc3ccc(N4C(=O)OC[C@@H]4C)cc3n2)n(C)n1 [Ex-8.1, (4S)-3-{2-[(1,3-dimethyl-1H-pyrazol-5-yl)amino]quinazolin-7-yl}-4-methyl-1,3-oxazolidin-2-one] | 4.41
C[C@H]1COC(=O)N1c1ccc2cnc(Nc3cnsc3)nc2c1 [Ex-8.7, (4S)-4-methyl-3-{2-[(1,2-thiazol-4-yl)amino]quinazolin-7-yl}-1,3-oxazolidin-2-one] | 5.2
C[C@H]1COC(=O)N1c1ccc2cnc(Nc3ccns3)nc2c1 [Ex-8.8, (4S)-4-methyl-3-{2-[(1,2-thiazol-5-yl)amino]quinazolin-7-yl}-1,3-oxazolidin-2-one] | 5.08
CC(C)c1cc(Nc2ncc3ccc(N4C(=O)OC[C@@H]4C)cc3n2)ns1 [Ex-8.9, (4S)-4-methyl-3-(2-{[5-(propan-2-yl)-1,2-thiazol-3-yl]amino}quinazolin-7-yl)-1,3-oxazolidin-2-one] | 8.03
C[C@H]1COC(=O)N1c1ccc2cnc(Nc3cc(C(C)(C)C)ns3)nc2c1 [Ex-8.10, (4S)-3-{2-[(3-tert-butyl-1,2-thiazol-5-yl)amino]quinazolin-7-yl}-4-methyl-1,3-oxazolidin-2-one] | 0.625
C[C@@H]1CN(C2COC2)CC[C@@H]1n1ncc(Nc2ncc3ccc(N4C(=O)OC[C@@H]4C)cc3n2)c1Cl [Ex-8.11, (4.5)-3-[2-({5-chloro-1-[(3R,4S)-3-methyl-1-(oxetan-3-yl)piperidin-4-yl]-1H-pyrazol-4-yl}amino)quinazolin-7-yl]-4-methyl-1,3-oxazolidin-2-one] | 1.59
C[C@H]1COC(=O)N1c1ccc2cnc(Nc3cn(C)nc3C(F)F)nc2c1 [Ex-8.12, (4S)-3-(2-{[3-(difluoromethyl)-1-methyl-1H-pyrazol-4-yl]amino}quinazolin-7-yl)-4-methyl-1,3-oxazolidin-2-one] | 1.63
C[C@H]1COC(=O)N1c1ccc2cnc(Nc3cnn4c3CCCC4)nc2c1 [Ex-8.13, (4S)-4-methyl-3-{2-[(4,5,6,7-tetrahydropyrazolo[1,5-a]pyridin-3-yl)amino]quinazolin-7-yl}-1,3-oxazolidin-2-one] | 0.625
Cc1nsc(Nc2ncc3ccc(N4C(=O)C5CCC4C5)cc3n2)c1C (centres unmarked) [Ex-8.14, 2-{2-[(3,4-dimethyl-1,2-thiazol-5-yl)amino]quinazolin-7-yl}-2-azabicyclo[2.2.1]heptan-3-one] | 7.79
Cc1nsc(Nc2ncc3ccc(N4C(=O)C5CCC4C5)cc3n2)c1C (centres unmarked) [Ex-8.15, 2-{2-[(3,4-dimethyl-1,2-thiazol-5-yl)amino]quinazolin-7-yl}-2-azabicyclo[2.2.1]heptan-3-one] | 2.59
C[C@H]1COC(=O)N1c1ccc2cnc(Nc3cn(C4CCCCC4)nc3Cl)nc2c1 [Ex-10.1, (S)-3-(2-((3-Chloro-1-cyclohexyl-1H-pyrazol-4-yl)amino)quinazolin-7-yl)-4-methyloxazolidin-2-one] | 7.01
CN1CCN(c2cc3nc(Nc4cnn(C)c4Cl)ncc3cc2Cl)CC1 [Ex-11.1, 6-Chloro-N-(5-chloro-1-methyl-1H-pyrazol-4-yl)-7-(4-methylpiperazin-1-yl)quinazolin-2-amine] | 11.7
CC1(N2CCN(c3cc4nc(Nc5cnn(C6(C)CC6)c5Cl)ncc4cc3Cl)CC2)CCOC1 (centres unmarked) [Ex-12.4] | 3.04
Clc1cc2cnc(Nc3cnn(C45CC(C4)C5)c3Cl)nc2cc1N1CCNCC1 [Ex-12.10, N-(1-(bicyclo[1.1.1]pentan-1-yl)-5-chloro-1H-pyrazol-4-yl)-6-chloro-7-(piperazin-1-yl)quinazolin-2-amine] | 2.13
[2H]C([2H])([2H])n1nc(C(C)(C)n2nccn2)cc1Nc1ncc2cc(Cl)c(N3CCC(C)(O)CC3)cc2n1 [Ex-14.1, 1-(2-((3-(2-(2H-1,2,3-Triazol-2-yl)propan-2-yl)-1-(methyl-d3)-1H-pyrazol-5-yl)amino)-6-chloroquinazolin-7-yl)-4-methylpiperidin-4-ol] | 4.11
CC(C)(O)Cn1ncc(Nc2ncc3cc(Br)c(NCC4CC4)nc3n2)c1Cl [Ex-15.1, 1-[4-({6-Bromo-7-[(cyclopropylmethyl)amino]pyrido[2,3-d]pyrimidin-2-yl}amino)-5-chloro-1H-pyrazol-1-yl]-2-methylpropan-2-ol] | 36.7
CC1(N2CCN(c3nc4nc(Nc5cnn(CC(F)F)c5Cl)ncc4cc3Cl)CC2)COC1 [Ex-15.2, 6-chloro-N-[5-chloro-1-(2,2-difluoroethyl)-1H-pyrazol-4-yl]-7-[4-(3-methyloxetan-3-yl)piperazin-1-yl]pyrido[2,3-d]pyrimidin-2-amine] | 60.8
Cc1c(Nc2ncc3cc(F)c(NCC4CC4)nc3n2)cnn1C1CCOCC1 [Ex-15.5, N-7-(cyclopropylmethyl)-6-fluoro-N-2-[5-methyl-1-(oxan-4-yl)-1H-pyrazol-4-yl]pyrido[2,3-d]pyrimidine-2,7-diamine] | 32.6
FC(F)(F)C1(n2ncc(Nc3ncc4cc(Cl)c(N5CCN(C6COC6)CC5)cc4n3)c2Cl)CC1 [Ex.3.23, 6-chloro-N-{5-chloro-1-[1-(trifluoromethyl)cyclopropyl]-1H-pyrazol-4-yl}-7-[4-(oxetan-3-yl)piperazin-1-yl]quinazolin-2-amine] | 3.45
